Measured values published in ChEMBL document CHEMBL5212743, “Selectivity Literature for EUbOPEN Chemogenomics Library wave 3” (2023).

What was measured:
[1] = target: T1, Serine/threonine-protein kinase 38-like (Homo sapiens, UniProt Q9Y2H1); assay: Selectivity interaction (KinomeScan (DiscoverX)) EUB0000712a STK38L; details: at 1 µM
Target sequence in this assay (Q9Y2H1 2-464 limits assumed): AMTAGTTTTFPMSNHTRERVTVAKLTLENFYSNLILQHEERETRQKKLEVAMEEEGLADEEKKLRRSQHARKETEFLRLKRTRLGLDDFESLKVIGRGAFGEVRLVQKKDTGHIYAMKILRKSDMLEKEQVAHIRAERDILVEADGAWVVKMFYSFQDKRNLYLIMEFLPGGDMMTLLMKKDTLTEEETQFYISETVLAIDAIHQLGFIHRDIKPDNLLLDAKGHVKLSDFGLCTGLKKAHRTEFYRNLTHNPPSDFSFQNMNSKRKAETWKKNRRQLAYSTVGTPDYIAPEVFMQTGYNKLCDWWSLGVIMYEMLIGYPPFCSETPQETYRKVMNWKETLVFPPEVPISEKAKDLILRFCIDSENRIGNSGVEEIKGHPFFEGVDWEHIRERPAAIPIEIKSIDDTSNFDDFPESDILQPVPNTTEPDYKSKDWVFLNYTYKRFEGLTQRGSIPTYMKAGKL

Mu-type opioid receptor = Mu-type opioid receptor (Homo sapiens, UniProt P35372); assay: Selectivity interaction (GPCR panel (PDSP screen)) EUB0000712a OPRM1; details: at 10 µM
[2] = target: T1, Serine/threonine-protein kinase 38-like; assay: Selectivity interaction (NanoBRET assay (HEK293T cells)) EUB0000712a STK38L
[3] = target: Serine/threonine-protein kinase B-raf (Homo sapiens, UniProt P15056); assay: Selectivity interaction (NanoBRET assay (HEK293T cells)) EUB0000712a BRAF
[4] = target: Receptor-interacting serine/threonine-protein kinase 2 (Homo sapiens) (UniProt O43353); assay: Selectivity interaction (KinomeScan (DiscoverX)) EUB0000712a RIPK2; details: at 1 µM
Receptor-interacting serine/threonine-protein kinase 2 (Homo sapiens), sequence (O43353 whole entry, canonical isoform): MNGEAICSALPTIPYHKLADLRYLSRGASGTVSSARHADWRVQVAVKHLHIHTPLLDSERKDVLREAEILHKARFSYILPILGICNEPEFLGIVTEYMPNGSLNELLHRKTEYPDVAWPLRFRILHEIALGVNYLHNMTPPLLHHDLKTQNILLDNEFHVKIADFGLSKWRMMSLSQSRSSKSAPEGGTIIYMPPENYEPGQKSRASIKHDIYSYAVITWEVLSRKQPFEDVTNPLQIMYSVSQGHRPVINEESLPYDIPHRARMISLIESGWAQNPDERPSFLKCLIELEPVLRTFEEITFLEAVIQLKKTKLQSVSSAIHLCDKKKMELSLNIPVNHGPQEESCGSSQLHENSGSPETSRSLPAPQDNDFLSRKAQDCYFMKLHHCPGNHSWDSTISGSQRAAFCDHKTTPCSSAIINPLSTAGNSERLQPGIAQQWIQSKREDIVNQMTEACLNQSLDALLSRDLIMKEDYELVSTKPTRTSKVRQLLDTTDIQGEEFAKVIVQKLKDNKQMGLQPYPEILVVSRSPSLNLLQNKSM

[5] = target: Phosphatidylinositol 4,5-bisphosphate 3-kinase catalytic subunit alpha isoform (Homo sapiens, UniProt P42336); assay: Selectivity interaction (KinomeScan (DiscoverX)) EUB0000712a PIK3CA; details: at 1 µM
[6] = target: T2, Serine/threonine-protein kinase Chk2 (Homo sapiens, UniProt O96017); assay: Selectivity interaction (KinomeScan (DiscoverX)) EUB0000712a CHEK2; details: at 1 µM
T2 sequence (O96017 whole entry): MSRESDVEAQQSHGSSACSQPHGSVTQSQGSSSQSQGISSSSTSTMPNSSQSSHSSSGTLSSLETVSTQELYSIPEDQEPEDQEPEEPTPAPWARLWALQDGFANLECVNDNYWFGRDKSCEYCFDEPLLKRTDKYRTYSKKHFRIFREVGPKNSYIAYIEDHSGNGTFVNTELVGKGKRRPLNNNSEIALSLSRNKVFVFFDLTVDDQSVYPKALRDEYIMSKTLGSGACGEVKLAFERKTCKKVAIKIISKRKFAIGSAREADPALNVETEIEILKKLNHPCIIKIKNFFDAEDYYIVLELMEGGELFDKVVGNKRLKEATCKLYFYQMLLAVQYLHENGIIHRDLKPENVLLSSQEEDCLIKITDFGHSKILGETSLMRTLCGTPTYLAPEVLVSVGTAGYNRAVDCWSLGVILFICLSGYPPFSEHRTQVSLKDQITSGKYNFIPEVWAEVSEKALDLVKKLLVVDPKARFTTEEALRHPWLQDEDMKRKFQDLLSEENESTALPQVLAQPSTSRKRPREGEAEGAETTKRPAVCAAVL

[7] = target: T2, Serine/threonine-protein kinase Chk2; assay: Selectivity interaction (NanoBRET assay (HEK293T cells)) EUB0000712a CHEK2
[8] = target: Receptor-type tyrosine-protein kinase FLT3 (Homo sapiens, UniProt P36888); assay: (§1) Selectivity interaction (NanoBRET assay (HEK293T cells)) EUB0000321b FLT3
[9] = target: Receptor-type tyrosine-protein kinase FLT3 (Homo sapiens, UniProt P36888, D835V); assay: as §1
[10] = target: T3, Mast/stem cell growth factor receptor Kit (Homo sapiens, UniProt P10721); assay: Selectivity interaction (NanoBRET assay (HEK293T cells)) EUB0000321b KIT
T3 sequence (P10721 whole entry): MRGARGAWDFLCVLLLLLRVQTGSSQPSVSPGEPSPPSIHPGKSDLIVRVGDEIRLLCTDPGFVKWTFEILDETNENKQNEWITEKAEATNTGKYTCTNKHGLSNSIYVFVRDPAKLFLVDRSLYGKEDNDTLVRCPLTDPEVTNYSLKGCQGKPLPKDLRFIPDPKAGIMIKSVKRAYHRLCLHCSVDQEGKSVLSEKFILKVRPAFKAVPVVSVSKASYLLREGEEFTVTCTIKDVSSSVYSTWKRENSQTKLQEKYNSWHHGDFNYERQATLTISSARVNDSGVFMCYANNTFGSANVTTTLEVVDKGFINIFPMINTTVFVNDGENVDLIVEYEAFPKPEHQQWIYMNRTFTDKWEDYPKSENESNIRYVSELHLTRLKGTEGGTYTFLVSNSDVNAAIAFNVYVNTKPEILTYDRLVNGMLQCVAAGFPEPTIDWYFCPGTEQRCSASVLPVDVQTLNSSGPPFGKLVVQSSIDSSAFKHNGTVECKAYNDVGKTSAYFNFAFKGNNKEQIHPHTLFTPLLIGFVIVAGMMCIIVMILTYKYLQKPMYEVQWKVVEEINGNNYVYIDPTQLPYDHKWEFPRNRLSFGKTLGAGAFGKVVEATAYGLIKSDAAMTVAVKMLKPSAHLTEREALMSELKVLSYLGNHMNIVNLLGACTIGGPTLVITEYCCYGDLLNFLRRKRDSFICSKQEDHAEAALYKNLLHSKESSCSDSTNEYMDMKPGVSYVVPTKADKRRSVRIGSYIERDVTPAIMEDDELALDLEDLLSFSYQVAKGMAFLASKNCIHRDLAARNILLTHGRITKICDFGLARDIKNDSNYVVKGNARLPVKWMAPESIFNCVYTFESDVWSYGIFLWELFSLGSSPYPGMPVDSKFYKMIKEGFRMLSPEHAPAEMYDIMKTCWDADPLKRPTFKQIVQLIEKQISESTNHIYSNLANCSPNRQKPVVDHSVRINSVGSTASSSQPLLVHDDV

[11] = target: T4, Dual specificity mitogen-activated protein kinase kinase 5 (Homo sapiens, UniProt Q13163); assay: Selectivity interaction (NanoBRET assay (HEK293T cells)) EUB0000321b MAP2K5
T4 sequence (Q13163 whole entry): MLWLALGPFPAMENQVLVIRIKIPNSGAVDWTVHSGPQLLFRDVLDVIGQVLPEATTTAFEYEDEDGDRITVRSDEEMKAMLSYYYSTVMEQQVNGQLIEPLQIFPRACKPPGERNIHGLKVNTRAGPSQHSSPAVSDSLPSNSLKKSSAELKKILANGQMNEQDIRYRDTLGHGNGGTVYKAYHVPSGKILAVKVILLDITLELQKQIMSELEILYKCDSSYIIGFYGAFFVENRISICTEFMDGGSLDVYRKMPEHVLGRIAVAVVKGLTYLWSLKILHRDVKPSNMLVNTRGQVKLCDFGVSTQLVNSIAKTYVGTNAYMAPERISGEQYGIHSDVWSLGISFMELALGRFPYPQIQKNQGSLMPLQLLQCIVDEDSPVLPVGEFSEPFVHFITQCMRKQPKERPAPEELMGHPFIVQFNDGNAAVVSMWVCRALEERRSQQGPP

[12] = target: Dual specificity tyrosine-phosphorylation-regulated kinase 1B (Homo sapiens, UniProt Q9Y463); assay: Selectivity interaction (KinomeScan (DiscoverX)) EUB0000321b DYRK1B; details: at 100 nM
[13] = target: T5, Dual specificity mitogen-activated protein kinase kinase 5 (Homo sapiens) (UniProt Q13163); assay: Selectivity interaction (KinomeScan (DiscoverX)) EUB0000321b MAP2K5; details: at 100 nM
T5 sequence (whole entry): T4 sequence (Q13163 whole entry)

[14] = target: Mitogen-activated protein kinase kinase kinase 5 (Homo sapiens) (UniProt Q99683); assay: Selectivity interaction (KinomeScan (DiscoverX)) EUB0000321b MAP3K5; details: at 100 nM
[15] = target: T6, Platelet-derived growth factor receptor beta (Homo sapiens, UniProt P09619); assay: Selectivity interaction (NanoBRET assay (HEK293T cells)) EUB0000321b PDGFRB
T6 sequence (P09619 whole entry): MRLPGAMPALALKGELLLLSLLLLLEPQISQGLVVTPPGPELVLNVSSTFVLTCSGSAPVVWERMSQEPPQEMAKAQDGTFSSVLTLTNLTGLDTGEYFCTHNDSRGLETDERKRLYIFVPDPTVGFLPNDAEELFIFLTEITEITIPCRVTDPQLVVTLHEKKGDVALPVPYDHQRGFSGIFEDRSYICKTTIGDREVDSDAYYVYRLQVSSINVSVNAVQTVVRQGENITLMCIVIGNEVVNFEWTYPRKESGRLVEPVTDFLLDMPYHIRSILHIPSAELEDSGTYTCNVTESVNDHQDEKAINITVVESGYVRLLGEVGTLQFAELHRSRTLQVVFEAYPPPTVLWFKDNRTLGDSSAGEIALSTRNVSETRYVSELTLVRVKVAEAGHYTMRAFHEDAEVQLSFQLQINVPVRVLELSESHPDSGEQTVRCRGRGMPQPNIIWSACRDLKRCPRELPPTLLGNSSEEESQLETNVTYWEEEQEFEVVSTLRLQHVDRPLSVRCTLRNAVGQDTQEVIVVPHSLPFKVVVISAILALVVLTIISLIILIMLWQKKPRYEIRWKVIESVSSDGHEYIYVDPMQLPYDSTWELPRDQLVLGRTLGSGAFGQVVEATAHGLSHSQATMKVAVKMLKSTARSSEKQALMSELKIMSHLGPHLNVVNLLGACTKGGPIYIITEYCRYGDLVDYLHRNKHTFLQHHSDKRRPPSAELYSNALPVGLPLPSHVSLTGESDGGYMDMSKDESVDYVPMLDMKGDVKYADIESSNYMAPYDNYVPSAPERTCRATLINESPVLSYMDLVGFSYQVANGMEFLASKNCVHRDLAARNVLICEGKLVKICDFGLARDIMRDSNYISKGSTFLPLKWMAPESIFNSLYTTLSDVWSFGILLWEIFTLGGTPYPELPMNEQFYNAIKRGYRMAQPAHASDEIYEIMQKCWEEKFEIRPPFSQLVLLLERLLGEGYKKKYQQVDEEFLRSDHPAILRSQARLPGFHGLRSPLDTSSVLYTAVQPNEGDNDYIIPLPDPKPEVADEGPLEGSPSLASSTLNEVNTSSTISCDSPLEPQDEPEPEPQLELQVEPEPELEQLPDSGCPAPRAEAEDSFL

[16] = target: T3, Mast/stem cell growth factor receptor Kit; assay: Selectivity interaction (KinomeScan (DiscoverX)) EUB0000321b KIT; details: at 100 nM
[17] = target: Mitogen-activated protein kinase kinase kinase 5 (Homo sapiens, UniProt Q99683); assay: Selectivity interaction (NanoBRET assay (HEK293T cells)) EUB0000321b MAP3K5
[18] = target: T6, Platelet-derived growth factor receptor beta; assay: Selectivity interaction (KinomeScan (DiscoverX)) EUB0000321b PDGFRB; details: at 100 nM
[19] = target: T7, Platelet-derived growth factor receptor alpha (Homo sapiens, UniProt P16234); assay: Selectivity interaction (NanoBRET assay (HEK293T cells)) EUB0000321b PDGFRA
T7 sequence (P16234 whole entry): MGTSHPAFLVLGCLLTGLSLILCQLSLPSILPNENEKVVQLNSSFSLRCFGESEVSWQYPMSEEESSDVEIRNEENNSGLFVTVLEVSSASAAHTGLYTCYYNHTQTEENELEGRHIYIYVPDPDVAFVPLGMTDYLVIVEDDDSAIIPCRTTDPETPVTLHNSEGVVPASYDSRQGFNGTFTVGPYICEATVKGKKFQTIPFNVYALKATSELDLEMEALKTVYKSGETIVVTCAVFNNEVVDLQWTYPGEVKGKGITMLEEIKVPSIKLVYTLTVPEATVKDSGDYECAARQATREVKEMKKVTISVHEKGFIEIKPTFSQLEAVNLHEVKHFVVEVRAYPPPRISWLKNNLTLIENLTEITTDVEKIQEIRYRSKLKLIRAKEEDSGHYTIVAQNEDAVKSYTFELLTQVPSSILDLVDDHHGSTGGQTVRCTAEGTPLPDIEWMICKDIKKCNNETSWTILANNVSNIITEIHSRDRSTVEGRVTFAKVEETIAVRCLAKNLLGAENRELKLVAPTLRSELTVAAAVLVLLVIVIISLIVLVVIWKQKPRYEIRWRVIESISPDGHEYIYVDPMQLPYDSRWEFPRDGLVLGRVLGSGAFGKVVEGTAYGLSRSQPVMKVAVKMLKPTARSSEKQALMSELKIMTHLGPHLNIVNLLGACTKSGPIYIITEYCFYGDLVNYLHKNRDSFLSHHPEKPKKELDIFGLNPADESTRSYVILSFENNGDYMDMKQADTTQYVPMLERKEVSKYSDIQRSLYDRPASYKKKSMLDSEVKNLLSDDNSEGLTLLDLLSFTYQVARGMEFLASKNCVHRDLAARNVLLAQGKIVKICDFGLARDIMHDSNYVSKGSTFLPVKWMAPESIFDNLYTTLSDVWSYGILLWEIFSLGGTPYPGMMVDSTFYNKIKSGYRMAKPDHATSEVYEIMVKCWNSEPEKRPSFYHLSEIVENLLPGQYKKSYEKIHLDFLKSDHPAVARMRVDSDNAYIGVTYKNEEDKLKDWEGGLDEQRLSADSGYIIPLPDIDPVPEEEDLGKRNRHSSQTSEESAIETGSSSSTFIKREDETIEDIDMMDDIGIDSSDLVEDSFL

[20] = target: Dual specificity tyrosine-phosphorylation-regulated kinase 1A (Homo sapiens, UniProt Q13627); assay: Selectivity interaction (KinomeScan (DiscoverX)) EUB0000321b DYRK1A; details: at 100 nM
[21] = target: T7, Platelet-derived growth factor receptor alpha; assay: Selectivity interaction (KinomeScan (DiscoverX)) EUB0000321b PDGFRA; details: at 100 nM

CS(=O)(=O)N1CCCC(NC(=O)[C@H](CCC2CCCCC2)NC(=O)c2ccc(CNC(=O)c3cnc4ccccn34)cc2)C1 (some centres not stated) [SR-302]
% of control [1]: 40%
% of inhibition (Mu-type opioid receptor): 45.3%
IC50 [2]: > 25 µM
IC50 [3]: > 25 µM
% of control [4]: 30%
% of control [5]: 37%
% of control [6]: 37%
IC50 [7]: > 25 µM

CN1CCN(C(=O)C(C)(C)c2ccc(C(=O)Nc3cn4cc(-c5ccncc5)ccc4n3)cc2)CC1 [T3-CLK]
IC50 [8]: 2.44 µM
IC50 [9]: 138 µM
IC50 [10]: 2.44 µM
IC50 [11]: > 10 µM
% of control [12]: 4.4%
% of control [13]: 4.9%
% of control [14]: 19%
IC50 [15]: 3 µM
% of control [16]: 14%
IC50 [17]: > 10 µM
% of control [18]: 24%
IC50 [19]: 2.52 µM
% of control [20]: 0.3%
% of control [21]: 29%
